The source of these data is patent US12440433B2, “Brightening cosmetic composition comprising sodium pyruvate as active ingredient” (LG HOUSEHOLD & HEALTH CARE LTD., priority 2020, dated 2025).

The test system of the test is B16F10 cells. As to the kind of experiment: Melanogenesis inhibitory efficiency test (melanin amount in α-MSH-stimulated B16F10 cells). Format: cell-based. The settings on record: for melanogenesis inhibitory effect (in words): urea or hydroxyethyl urea used alone; for Melanin amount (%) / Melanogenesis inhibitory efficiency (symbol): 10 nM α-MSH; for Melanin amount (%) / Melanogenesis inhibitory efficiency (symbol) / Melanogenesis inhibitory efficiency: 48 hours; for Melanin amount (%): absorbance at 405 nm, ingredient concentrations (wt %) per Table 1; for Melanogenesis inhibitory efficiency (symbol): symbol for no effect; for Melanogenesis inhibitory efficiency: (Melanin amount upon no treatment − upon treatment)/(upon no treatment) × 100, 10 nM α-MSH. The protocol: In order to confirm melanogenesis inhibitory efficacy caused by sodium pyruvate, first, B16F10 cells were dispensed into a 6-well plate at 1×10^5 cells/well and cultured in a DMEM medium containing 10% FBS and 1% penicillin/streptomycin under conditions of 37° C. and 5% CO2 for 24 hours. […] The resulting cells were harvested, added to 100 μl of a lysis buffer (1N NaOH, 10% DMSO), and then allowed to react at 90° C. for 20 minutes, and melanin amounts were measured at 405 nm (EPOCH, Biotek). The melanin amount measurement results are as follows.

Turning to `NC(=O)NCCO` [compound 2, hydroxyethyl urea], the “melanogenesis inhibitory effect (in words)” value is listed as “a melanogenesis inhibitory effect was not shown”.
With `NC(N)=O` [compound 4, urea], the “Melanin amount (%)” value came out at 100%, the “Melanogenesis inhibitory efficiency (symbol)” value is reported as “*** (100 or more has no effect)” and the “melanogenesis inhibitory effect (in words)” value is given as “a melanogenesis inhibitory effect was not shown”.
Consider `CC(=O)C(=O)[O-].[Na+]` [compound 10, sodium pyruvate], for which the “Melanin amount (%)” value is 77% and the Melanogenesis inhibitory efficiency was 23%.
Regarding `CC(=O)C(=O)[O-].[Na+]` [Comparative Example 11, sodium pyruvate], the “Melanin amount (%)” value came to 64% and the Melanogenesis inhibitory efficiency is listed as 36%.
In the case of `CC(=O)C(=O)[O-].[Na+]` [compound 9, sodium pyruvate], the “Melanin amount (%)” value amounted to 82% and the Melanogenesis inhibitory efficiency worked out at 18%.
With `NC(=O)NCCO` [compound 3, hydroxyethyl urea], the “Melanin amount (%)” value was found to be 100% and the “Melanogenesis inhibitory efficiency (symbol)” value is given as “*** (100 or more has no effect)”.
For `CC(=O)C(=O)[O-].[Na+]` [compound 8, sodium pyruvate], the “Melanin amount (%)” value is recorded as 92% and the Melanogenesis inhibitory efficiency is 8%.
